This note sets out measurements from article PMC12126525, “Mechanism of ATP hydrolysis in the Hsp70 BiP nucleotide-binding domain” (Nature Communications, 2025).

The target of this assay is BiP NBD (Homo sapiens, UniProt P11021). The assay is described as follows: Global kinetic fit (MCMC) of four NMR data sets (E1+E2, E1 only, E2 only, no recycling): functional cycle kinetic parameters. Format: biochemical. Also on record: His6 (N, cleaved yes); made in house; host or cells: E. coli BL21-(DE3)-Lemo, pET28a vector. An excerpt: It comprises 5 different states that are connected by […] reaction equations of first and second order. We consider ATP hydrolysis an irreversible reaction without backreaction. The other pathways are reversible dissociation/association reactions, arbitrarily labeled 1–5. The microscopic equations (elementary reactions) for these 11 reactions are given by:1 NBD^ATPkcat→NBD^ADP⋅Pi 2 NBD^ATPkoff1⇌kon1NBD^apo+ATP 3 NBD^ADPkoff2⇌kon2NBD^apo+ADP 4 NBD^Pikoff3⇌kon3NBD^apo+Pi 5 NBD^ADP⋅Pikoff4⇌kon4NBD^ADP+Pi 6 NBD^ADP⋅Pikoff5⇌kon5NBD^Pi+ADP With the forward and backward kinetic rate constants connected by thermodynamic equilibrium dissociation constants given by7 koffi/koni=KDifori=1,…,5 For each of the 5 states, a differential equation describing the conservation of mass can be derived:8 d/dtNBD^apo=+koff1NBD^ATP+koff2NBD^ADP+koff3NBD^Pi−kon1NBD^apoATP−kon2NBD^apoADP−kon3NBD^apoPi 9 d/dt[NBD^ATP]=+kon1NBD^apoATP−koff1NBD^ATP−kcatNBD^ATP 10 d/dtNBD^ADP⋅Pi=+kcatNBD^ATP+kon4NBD^ADPPi+kon5NBD^PiADP−koff4NBD^ADP⋅Pi−koff5NBD^ADP⋅Pi 11 d/dtNBD^ADP=+koff4NBD^ADP⋅Pi+kon2NBD^apoADP−koff2NBD^ADP−kon4NBD^ADPPi 12 d/dtNBD^Pi=+koff5NBD^ADP⋅Pi+kon3NBD^apoPi−koff3NBD^Pi−kon5NBD^PiADP Furthermore, we have the total amount13 NBD^apo+NBD^ATP+NBD^ADP+NBD^ADP⋅Pi+NBD^Pi=NBD0 These equations can be used for numerical fitting of steady-state and non-steady-state experimental data.
The experimental data of the BiP NBD in-cyclo experiments were fitted using standard reaction kinetics. Free variables were the kon and koff rates for the five reversible reaction and the catalytic rate constant (kcat) for the irreversible ATP hydrolysis step (See theory section). The initial values for kcat , koff2 , koff4 and koff5 were set to the value determined experimentally with in-cyclo experiment. The initial value for koff3 was taken from the EXSY experiment and the initial range for koff1 and KD1 were taken from the literature. […] The prior distributions were defined based on the average state occupancy resolved from the in-cyclo experiment: tNBD·ADP, tNBD, tNBD·ADP·Pi and tNBD·Pi. Numerical integration of the corresponding differential equations for the reaction scheme (described in Fig. 2a) was performed using a custom Python module (Kinetic).
To fully determine all kinetic parameters, the data fitting procedure was conducted as a global fit of four independent experimental datasets: (i) the in-cyclo experiment with ATP regeneration and phosphate removal, (ii) ATP regeneration only, (iii) single batch experiments starting from pure ATP with the phosphate removal system, and (iv) single batch experiments starting from pure ATP.
Fitting of the functional cycle kinetic parameters. a-d, Global fit of the experimental data presented in the manuscript E1 +E2 (a), E1 (b), E2 (c), no recycling system (d). Data points are shown as circles NBD·ADP (blue), NBD·ADP·PI (dark blue) and NBD·ATP (red) (left) and pyruvate (grey), glucose-1-P (lavender), ATP (red) and ADP (blue) (right). The fit of the data is shown as lines in the same color as the data points. Data points and standard deviation for three independent experiments. e, Numerical stability of the global fitting of the experimental data.

Setting [1] is: Supplementary Fig 10a, time 5 min.
Setting [2] is: Supplementary Fig 10a, time 11 min.
Setting [3] is: Supplementary Fig 10a, time 17 min.
Setting [4] is: Supplementary Fig 10a, time 23 min.
The mark [5] stands for this setting: Supplementary Fig 10a, time 29 min.
Setting [6] is: Supplementary Fig 10a, time 35 min.
The mark [7] stands for this setting: Supplementary Fig 10a, time 41 min.
The mark [8] stands for this setting: Supplementary Fig 10a, time 47 min.
Where [9] appears, read: Supplementary Fig 10a, time 53 min.
Where [10] appears, read: Supplementary Fig 10a, time 59 min.
Where [11] appears, read: Supplementary Fig 10a, time 65 min.
Where [12] appears, read: Supplementary Fig 10a, time 71 min.
Setting [13] is: Supplementary Fig 10b, time 10 min.
Setting [14] is: Supplementary Fig 10b, time 16 min.
Where [15] appears, read: Supplementary Fig 10b, time 22 min.
The mark [16] stands for this setting: Supplementary Fig 10b, time 28 min.
The mark [17] stands for this setting: Supplementary Fig 10b, time 34 min.
The mark [18] stands for this setting: Supplementary Fig 10b, time 40 min.
[19] abbreviates: Supplementary Fig 10b, time 46 min.
Setting [20] is: Supplementary Fig 10b, time 52 min.
[21] abbreviates: Supplementary Fig 10b, time 58 min.
Where [22] appears, read: Supplementary Fig 10b, time 64 min.
Where [23] appears, read: Supplementary Fig 10b, time 70 min.

Chain of BiP NBD (P11021 19-406): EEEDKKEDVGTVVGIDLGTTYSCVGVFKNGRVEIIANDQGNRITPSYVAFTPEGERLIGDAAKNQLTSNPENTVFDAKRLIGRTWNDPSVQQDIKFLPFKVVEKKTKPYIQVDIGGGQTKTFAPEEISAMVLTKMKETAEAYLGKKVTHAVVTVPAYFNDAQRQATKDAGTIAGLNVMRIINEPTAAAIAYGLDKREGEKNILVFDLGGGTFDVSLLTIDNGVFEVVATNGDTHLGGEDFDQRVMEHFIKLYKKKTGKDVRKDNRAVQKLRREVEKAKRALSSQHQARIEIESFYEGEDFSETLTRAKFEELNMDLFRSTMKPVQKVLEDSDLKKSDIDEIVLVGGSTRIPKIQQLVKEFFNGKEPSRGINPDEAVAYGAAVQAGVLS

Consider `CC(=O)C(=O)O` [Pyruvate], for which the species runs as follows: under setting [1], 841 µM; under setting [2], 1872 µM; under setting [3], 3013 µM; under setting [4], 4002 µM; under setting [5], 4950 µM; under setting [6], 5935 µM. Further, the species runs as follows: under setting [7], 6850 µM; under setting [8], 7775 µM; under setting [9], 8621 µM; under setting [10], 9455 µM; under setting [11], 10281 µM; under setting [12], 11083 µM. Further, the species is, setting by setting: under setting [13], 1011 µM; under setting [14], 1602 µM; under setting [15], 2255 µM; under setting [16], 2820 µM; under setting [17], 3384 µM; under setting [18], 3735 µM. Moreover, the species reads like this: under setting [19], 4207 µM; under setting [20], 4544 µM; under setting [21], 4962 µM; under setting [22], 5335 µM; under setting [23], 5727 µM.

Take `C=C(OP(=O)(O)O)C(=O)O` [PEP]: the species is 23927 µM under setting [1]; 22915 µM under setting [2]; 22075 µM under setting [3]; 20991 µM under setting [4]; 20195 µM under setting [5]; 19469 µM under setting [6]. The species runs as follows: under setting [7], 18568 µM; under setting [8], 17755 µM; under setting [9], 16928 µM; under setting [10], 16013 µM; under setting [11], 15275 µM; under setting [12], 14277 µM. In addition, the species amounted to 9179 µM under setting [13]; 8398 µM under setting [14]; 7745 µM under setting [15]; 7180 µM under setting [16]; 6616 µM under setting [17]; 6265 µM under setting [18]. The molecule further returned a species under setting [19] of 5793 µM; a species under setting [20] of 5256 µM; a species under setting [21] of 4838 µM; a species under setting [22] of 4465 µM; a species under setting [23] of 3973 µM.

On to `O=P(O)(O)O[C@H]1O[C@H](CO)[C@@H](O)[C@H](O)[C@H]1O` [glucose-1-p], for which the species runs as follows: under setting [1], 1073 µM; under setting [2], 2085 µM; under setting [3], 2925 µM; under setting [4], 4009 µM; under setting [5], 4805 µM; under setting [6], 5531 µM. For the same molecule, the species under setting [7] was found to be 6432 µM; the species under setting [8] was 7245 µM; the species under setting [9] worked out at 8072 µM; the species under setting [10] came out at 8987 µM; the species under setting [11] turned out to be 9725 µM; the species under setting [12] was 10723 µM. Also, the species was found to be 690 µM (Supplementary Fig 10c, time 5 min); 1328 µM (Supplementary Fig 10c, time 11 min); 1777 µM (Supplementary Fig 10c, time 17 min); 2409 µM (Supplementary Fig 10c, time 23 min); 2838 µM (Supplementary Fig 10c, time 29 min); 3243 µM (Supplementary Fig 10c, time 35 min). For the same molecule, the species came out at 3518 µM (Supplementary Fig 10c, time 41 min); 3730 µM (Supplementary Fig 10c, time 47 min); 3950 µM (Supplementary Fig 10c, time 53 min).
